Reference: US11932658B2 (BRISTOL-MYERS SQUIBB COMPANY, priority 2016, dated 2024)

Target: T1, PAR4 (Homo sapiens, UniProt Q96RI0)
T1 construct: expressed in transfected cells; host or cells: HEK293 PAR4 Clone 1.2A (BMS Arctic ID 383940)
T1 sequence (Q96RI0 18-385): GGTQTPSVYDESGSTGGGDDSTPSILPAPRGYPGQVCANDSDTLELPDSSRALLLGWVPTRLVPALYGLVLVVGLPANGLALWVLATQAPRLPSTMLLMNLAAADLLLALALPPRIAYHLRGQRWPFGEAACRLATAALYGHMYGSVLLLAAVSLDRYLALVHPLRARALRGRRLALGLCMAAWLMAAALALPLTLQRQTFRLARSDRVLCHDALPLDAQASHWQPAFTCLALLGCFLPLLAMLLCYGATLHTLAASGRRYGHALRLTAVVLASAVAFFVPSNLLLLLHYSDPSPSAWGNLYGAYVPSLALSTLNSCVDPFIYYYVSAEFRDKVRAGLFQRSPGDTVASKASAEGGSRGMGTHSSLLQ
Test: PAR4 FLIPR assay (antagonism of agonist peptide-induced calcium mobilization)
Assay type: cell-based
Procedure, shortened: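 Antagonism was taken as block of calcium mobilization evoked by the agonist peptide H-Ala-Phe(4-F)-Pro-Gly-Trp-Leu-Val-Lys-Asn-[…]-NH2, added after 30 min room-temperature compound preincubation in dye-loaded PAR4-transfected HEK293 cells (endogenous PAR1). Fluorescence was read on FDSS, with compound addition alone used as the agonist counter-screen; values come from 11-point concentration-response curves.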

Compound	IC50 [nM]
COc1cnc2c(-c3nc4c(C)cc5c(c4s3)OC[C@H](COC(=O)Nc3ccnc(C)c3)O5)cc(C(F)F)cc2n1 [Example 84, (R)-(2-(7-(difluoromethyl)-2-methoxyquinoxalin-5-yl)-4-methyl-7,8-dihydro-[1,4]dioxino[2′,3′:3,4]benzo[1,2-d]thiazol-7-yl)methyl (2-methylpyridin-4-yl)carbamate]	33
C=Cc1cc(-c2nc3c(C)cc4c(c3s2)OCC(COC(=O)Nc2ccc(OC)nc2)O4)c2ncc(OC)nc2c1 (stereo not drawn) [Example 86, (2-(2-methoxy-7-vinylquinoxalin-5-yl)-4-methyl-7,8-dihydro-[1,4]dioxino[2′,3′:3,4]benzo [1,2-d]thiazol-7-yl)methyl (6-methoxypyridin-3-yl)carbamate]	6.3
COc1ccc(NC(=O)OCC2COc3c(cc(C)c4nc(-c5cc(C(C)O)cc6nc(OC)cnc56)sc34)O2)cn1 (stereo not drawn) [Example 88, (2-(7-(1-hydroxyethyl)-2-methoxyquinoxalin-5-yl)-4-methyl-7,8-dihydro-[1,4]dioxino[2′,3′:3,4]benzo[1,2-d]thiazol-7-yl)methyl (6-methoxypyridin-3-yl)carbamate]	4.4
COc1cnc2c(-c3nc4c(C)cc5c(c4s3)OC[C@H](COC(=O)Nc3ccc(C)nc3)O5)cc(C#N)cc2n1 [Example 91, (R)-(2-(7-cyano-2-methoxyquinoxalin-5-yl)-4-methyl-7,8-dihydro-[1,4]dioxino[2′,3′:3,4]benzo[1,2-d]thiazol-7-yl)methyl (6-methylpyridin-3-yl)carbamate]	1.1
COc1cnc2c(-c3nc4c(C)cc5c(c4s3)OC[C@H](COC(=O)Nc3ccnc(C)c3)O5)cc(C#N)cc2n1 [Example 92, (R)-(2-(7-cyano-2-methoxyquinoxalin-5-yl)-4-methyl-7,8-dihydro-[1,4]dioxino[2′,3′:3,4]benzo[1,2-d]thiazol-7-yl)methyl (2-methylpyridin-4-yl)carbamate]	1.4
COc1ccc(NC(=O)OC[C@H]2COc3c(cc(C)c4nc(-c5cc(C#N)cc6nc(OC)cnc56)sc34)O2)cn1 [Example 94, (R)-(2-(7-cyano-2-methoxyquinoxalin-5-yl)-4-methyl-7,8-dihydro-[1,4]dioxino[2′,3′:3,4]benzo[1,2-d]thiazol-7-yl)methyl (6-methoxypyridin-3-yl)carbamate]	29
COc1cnc2c(-c3nc4ccc5c(c4s3)OC[C@H](COC(=O)Nc3ccc(C)nc3)O5)cc(C)cc2n1 [Example 102, (R)-(2-(2-methoxy-7-methylquinoxalin-5-yl)-7,8-dihydro-[1,4]dioxino[2′,3′:3,4]benzo[1,2-d]thiazol-7-yl)methyl (6-methylpyridin-3-yl)carbamate]	2.3
COc1cnc2c(-c3nc4ccc5c(c4s3)OC[C@H](COC(=O)Nc3cnc(C)nc3)O5)cc(C)cc2n1 [Example 103, (R)-(2-(2-methoxy-7-methylquinoxalin-5-yl)-7,8-dihydro-[1,4]dioxino [2′,3′:3,4]benzo[1,2-d]thiazol-7-yl)methyl (2-methylpyrimidin-5-yl)carbamate]	2.8
COc1ccc(NC(=O)OC[C@H]2COc3c(ccc4nc(-c5cc(C)cc6nc(OC)cnc56)sc34)O2)cn1 [Example 104, (R)-(2-(2-methoxy-7-methylquinoxalin-5-yl)-7,8-dihydro-[1,4]dioxino[2′,3′:3,4]benzo[1,2-d]thiazol-7-yl)methyl (6-methoxypyridin-3-yl)carbamate]	1.9
COc1cnc2c(-c3nc4ccc5c(c4s3)OC[C@H](COC(=O)Nc3ccc(C#N)nc3)O5)cc(C)cc2n1 [Example 105, (R)-(2-(2-methoxy-7-methylquinoxalin-5-yl)-7,8-dihydro-[1,4]dioxino[2′,3′:3,4]benzo[1,2-d]thiazol-7-yl)methyl (6-cyanopyridin-3-yl)carbamate]	1.6
COc1cnc2c(-c3nc4ccc5c(c4s3)OC[C@H](COC(=O)Nc3ccc4[nH]c(=O)oc4c3)O5)cc(C)cc2n1 [Example 106, (R)-(2-(2-methoxy-7-methylquinoxalin-5-yl)-7,8-dihydro-[1,4]dioxino[2′,3′:3,4]benzo [1,2-d]thiazol-7-yl)methyl (2-oxo-2,3-dihydrobenzo[d]oxazol-6-yl)carbamate]	2

Now from value to molecule:

IC50 [nM]	Compound
29	COc1cnc2c(-c3nc4c(F)cc5c(c4s3)OC[C@H](COC(=O)Nc3cccnc3)O5)cc(CO)cc2n1 [Example 83, (R)-(4-fluoro-2-(7-(hydroxymethyl)-2-methoxyquinoxalin-5-yl)-7,8-dihydro-[1,4]dioxino [2′,3′:3,4]benzo[1,2-d]thiazol-7-yl)methyl pyridin-3-ylcarbamate]
15	COc1cnc2c(-c3nc4c(F)cc5c(c4s3)OC[C@H](COC(=O)Nc3ccnc(C)c3)O5)cc(CO)cc2n1 [Example 85, (R)-(4-fluoro-2-(7-(hydroxymethyl)-2-methoxyquinoxalin-5-yl)-7,8-dihydro-[1,4]dioxino [2′,3′:3,4]benzo[1,2-d]thiazol-7-yl)methyl (2-methylpyridin-4-yl)carbamate]
2	COc1ccc(NC(=O)OCC2COc3c(cc(C)c4nc(-c5cc(CO)cc6nc(OC)cnc56)sc34)O2)cn1 (stereo not drawn) [Example 87, (2-(7-(hydroxymethyl)-2-methoxyquinoxalin-5-yl)-4-methyl-7,8-dihydro-[1,4]dioxino[2′,3′:3,4]benzo[1,2-d]thiazol-7-yl)methyl (6-methoxypyridin-3-yl)carbamate]
20	C=Cc1cc(-c2nc3c(C)cc4c(c3s2)OCC(COC(=O)Nc2cccnc2)O4)c2ncc(OC)nc2c1 (stereo not drawn) [Example 89, (2-(2-methoxy-7-vinylquinoxalin-5-yl)-4-methyl-7,8-dihydro-[1,4]dioxino[2′,3′:3,4]benzo [1,2-d]thiazol-7-yl)methyl pyridin-3-ylcarbamate]
2.7	COc1cnc2c(-c3nc4c(C)cc5c(c4s3)OCC(COC(=O)Nc3cccnc3)O5)cc(CO)cc2n1 (stereo not drawn) [Example 90, (2-(7-(hydroxymethyl)-2-methoxyquinoxalin-5-yl)-4-methyl-7,8-dihydro-[1,4]dioxino[2′,3′:3,4]benzo[1,2-d]thiazol-7-yl)methyl pyridin-3-ylcarbamate]
20	COc1cnc2c(-c3nc4c(C)cc5c(c4s3)OC[C@H](COC(=O)Nc3cccnc3)O5)cc(C#N)cc2n1 [Example 93, (R)-(2-(7-cyano-2-methoxyquinoxalin-5-yl)-4-methyl-7,8-dihydro-[1,4]dioxino[2′,3′:3,4]benzo[1,2-d]thiazol-7-yl)methyl pyridin-3-ylcarbamate]
140	COc1cnc2c(-c3nc4c(C)cc5c(c4s3)OCC(COC(=O)Nc3cccnc3)O5)cc(Cl)cc2n1 (stereo not drawn) [Example 95, (2-(7-chloro-2-methoxyquinoxalin-5-yl)-4-methyl-7,8-dihydro-[1,4]dioxino[2′,3′:3,4]benzo[1,2-d]thiazol-7-yl)methyl pyridin-3-ylcarbamate]
12	COc1cnc2c(-c3nc4c(C)cc5c(c4s3)OCC(COC(=O)Nc3ccc(F)nc3)O5)cc(Cl)cc2n1 (stereo not drawn) [Example 96, (2-(7-chloro-2-methoxyquinoxalin-5-yl)-4-methyl-7,8-dihydro-[1,4]dioxino[2′,3′:3,4]benzo[1,2-d]thiazol-7-yl)methyl (6-fluoropyridin-3-yl)carbamate]
64	COc1cnc2c(-c3nc4c(C)cc5c(c4s3)OCC(COC(=O)Nc3ccc(C)nc3)O5)cc(Cl)cc2n1 (stereo not drawn) [Example 97, (2-(7-chloro-2-methoxyquinoxalin-5-yl)-4-methyl-7,8-dihydro-[1,4]dioxino[2′,3′:3,4]benzo[1,2-d]thiazol-7-yl)methyl (6-methylpyridin-3-yl)carbamate]
1.4	COc1ccc(NC(=O)OC[C@H]2COc3c(cc(C)c4nc(-c5cc(CO)cc6nc(OC)cnc56)sc34)O2)cn1 [Example 98, (R)-(2-(7-(hydroxymethyl)-2-methoxyquinoxalin-5-yl)-4-methyl-7,8-dihydro-[1,4]dioxino[2′,3′:3,4]benzo[1,2-d]thiazol-7-yl)methyl (6-methoxypyridin-3-yl)carbamate]
2	COc1cnc2c(-c3nc4c(C)cc5c(c4s3)OC[C@H](COC(=O)Nc3ccnc(C)c3)O5)cc(CO)cc2n1 [Example 99, (R)-(2-(7-(hydroxymethyl)-2-methoxyquinoxalin-5-yl)-4-methyl-7,8-dihydro-[1,4]dioxino[2′,3′:3,4]benzo[1,2-d]thiazol-7-yl)methyl (2-methylpyridin-4-yl)carbamate]
1.8	COc1cnc2c(-c3nc4c(C)cc5c(c4s3)OC[C@H](COC(=O)Nc3ccc(C)nc3)O5)cc(CO)cc2n1 [Example 100, (R)-(2-(7-(hydroxymethyl)-2-methoxyquinoxalin-5-yl)-4-methyl-7,8-dihydro-[1,4]dioxino[2′,3′:3,4]benzo[1,2-d]thiazol-7-yl)methyl (6-methylpyridin-3-yl)carbamate]
2.8	COc1cnc2c(-c3nc4c(C)cc5c(c4s3)OC[C@H](COC(=O)Nc3cccnc3)O5)cc(CO)cc2n1 [Example 101, (R)-(2-(7-(hydroxymethyl)-2-methoxyquinoxalin-5-yl)-4-methyl-7,8-dihydro-[1,4]dioxino[2′,3′:3,4]benzo[1,2-d]thiazol-7-yl)methyl pyridin-3-ylcarbamate]
